Results on 1 compound are retold here after patent US11633447B2, “Pharmaceutical composition and functional health food for preventing or treating macular degeneration” (LEMONEX INC., priority 2018, dated 2023).

For one assay, the system named is ARPE-19 cells. Kind of assay: Retinal pigment epithelial cell protection against blue light-induced photooxidation after A2E accumulation (cell counting kit-8 viability). The assay is classed as cell-based. The following applies: 17.04 μg/mL (30 μM) for 24 hours; 20 μM A2E; blue light 4,000 lux 10 minutes; difference control vs blue light group set to 100%. Here is the method:
Since it is already known that photooxidation occurs when retinal pigment epithelial cells accumulated with A2E are irradiated with blue light, it was confirmed whether cytotoxicity derived by irradiation with blue light after 20 μM A2E accumulation in ARPE-19 cells could be suppressed using the banaba leaf extract, guava leaf extract, and the mixture thereof. Specifically, all ARPE-19 cells were treated with A2E at a concentration of 20 μM for 24 hours, and then treated with 100 μg/mL of the banaba leaf extract, the guava leaf extract, and the mixture thereof in Example 1, respectively, or 17.04 μg/mL (30 μM) of lutein for 24 hours. Thereafter, the treated cells were irradiated with blue light (4,000 lux) for 10 minutes. 24 hours after blue light irradiation, cell viability of ARPE-19 cells was measured by a cell counting kit-8 (Dojindo Labs, Japan), and the percentage of cell viability of each treatment group was compared to the control not irradiated with blue light. Lutein was used as a positive control. […] By setting a difference in cell viability between the control not irradiated with blue light and the blue light irradiated group to be 100%, cell protective effects of each extract were estimated by calculating cell protective effects through a difference in cell viability between the blue light irradiated group and the treated group. […]

A further assay deals with Balb-c mice. Kind of assay: Blue light-induced macular degeneration animal model, thickness of outer nuclear layer (ONL) by H&E staining. The assay is classed as in vivo. The following applies: oral, once daily, 50 mg/kg, blue light 10,000 lux 1 hour per day for 14 days. The method, then: Balb-c mice (5 weeks old, males) were acclimated and bred for 2 days, and then orally administered with each of the banaba leaf extract, the guava leaf extract, the mixture thereof or lutein (50 mg/kg) once daily for 7 days. Then, after 24 hours of dark acclimatization, each of the extracts and the mixture and lutein was orally administered for 14 days, and 30 minutes later, followed by blue light irradiation at 10,000 lux for 1 hour per day. 24 hours after the blue light irradiation and the end of administration of the extract, the mice were sacrificed to an extract eyeball, and then, retinal cell protective effects were determined through tissue staining (FIG. 4).
The extracted eyeball tissue was fixed with a neutral buffered formalin solution. The fixed eyeball was washed with running water and was subjected to a dehydration process using alcohol. Thereafter, a clearing process was performed using Xylene, and proper rigidity was given to the tissue using paraffin. The eyeball was made into a predetermined shape of paraffin block, and then cut to 4 μm thickness. The cut eyeball was subjected to hematoxylin & eosin (H & E) staining. […] Then, a thickness of the outer nuclear layer (ONL) of the visual cell was measured by Image J software (National Institute of Health, […], Md., USA)), followed by counting the number of nuclei. […]

In the case of `CC1=C[C@H](O)CC(C)(C)[C@H]1/C=C/C(C)=C/C=C/C(C)=C/C=C/C=C(C)/C=C/C=C(C)/C=C/C1=C(C)C[C@@H](O)CC1(C)C` [lutein], the “cell protective effect (cell viability)” value in the assay on ARPE-19 cells is given as 48.4%. In the assay with Balb-c mice, the “ONL thickness change in administered groups” value was “significantly increased ONL thickness”. Further, the “ONL protective effect (ONL thickness)” value with Balb-c mice (difference control vs blue light group set to 100%) was 28.2%.
